Measurements published in patent publication US8940310B2, “Methods of treatment using TLR7 and/or TLR9 inhibitors” (Dynavax Technologies Corporation, priority 2010, dated 2015).
[I] = hypoxanthine (inosine); d = 2'-deoxy (DNA); m = 2'-O-methyl

Tested on: human B-cells
Test: Human B-cells cultured in the presence of IRPs, IL-6
[1] = Experiment # 4, Max Conc 4.0 uM
[2] = Experiment # 5, Max Conc 4.0 uM
[3] = Experiment # 6, Max Conc 4.0 uM
[4] = Experiment # 7, Max Conc 4.0 uM
[5] = Experiment # 8, Max Conc 2.0 uM
[6] = Experiment # 9, Max Conc 2.0 uM
[7] = Experiment # 1, Max Conc 4.0 uM
[8] = Experiment # 11, Max Conc 2.0 uM

Experimental: For the human B-cell assay, B-cells were purified from total blood cells obtained from healthy donors using magnetic beads (CD19 positive). Cells were resuspended in fresh medium (RPMI 1640 with 10% fetal calf serum, 50 units/mL penicillin, 50 μg/mL streptomycin, and 2 mM glutamine). At 48 hours, supernatants were collected and cytokine levels, IL-6, were measured using immunoassay.
To further investigate the effect of IRPs on B-cell stimulatory activity, a wide variety of IRP sequences were assayed for IL-6, along with positive and negative controls. The experiment was performed as described in Example 1 using doses of IRP of either 4.0 μM or 2.0 μM. The positive control was an immunostimulatory sequence (ISS) with SEQ ID NO:157. […] The results are presented as the average normalized IL-6 response over several experiments.

5′-TGCTCCTGGAGGGGTTGTAAGT-3′ (DNA TGCTCCTGGAGGGGTTGTAAGT; DNA, backbone and methylation of C not given here; further chemistry not fully specified) [SEQ ID NO:67]
Normalized IL-6 Response (Percentage of Positive Control) [1]: 8% | Normalized IL-6 Response (Percentage of Positive Control) [2]: 7% | Normalized IL-6 Response (Percentage of Positive Control) [3]: 4% | Normalized IL-6 Response (Percentage of Positive Control) [4]: 8%

5′-TGCTCCTGGAGGGGTTGTAAGTTTGT-3′ (DNA TGCTCCTGGAGGGGTTGTAAGTTTGT; DNA, backbone and methylation of C not given here; further chemistry not fully specified) [SEQ ID NO:68]
Normalized IL-6 Response (Percentage of Positive Control) [2]: 12% | Normalized IL-6 Response (Percentage of Positive Control) [3]: 6%

5′-TGC TCC TGG AGG GGT TGT-HEG-HEG-3′ (DNA TGCTCCTGGAGGGGTTGTNN; 3' HEG-HEG, chemistry not fully specified) [SEQ ID NO:141]
Normalized IL-6 Response (Percentage of Positive Control) [1]: 8% | Normalized IL-6 Response (Percentage of Positive Control) [4]: 8%

5′-TGC TCC TTG AGG GGT TGT-3′ (DNA TGCTCCTTGAGGGGTTGT; DNA, backbone not given here; further chemistry not fully specified) [SEQ ID NO:69]
Normalized IL-6 Response (Percentage of Positive Control) [1]: 11% | Normalized IL-6 Response (Percentage of Positive Control) [4]: 11%

5′-TGC TCC TTG AGI GGT TGT-3′ (DNA TGCTCCTTGAGNGGTTGT; DNA, [I] at 12, backbone not given here) [SEQ ID NO:71]
Normalized IL-6 Response (Percentage of Positive Control) [1]: 12% | Normalized IL-6 Response (Percentage of Positive Control) [2]: 15% | Normalized IL-6 Response (Percentage of Positive Control) [3]: 10% | Normalized IL-6 Response (Percentage of Positive Control) [4]: 12% | Normalized IL-6 Response (Percentage of Positive Control) [5]: 4% | Normalized IL-6 Response (Percentage of Positive Control) [6]: 14%

5′-TGCTGCTCCTGGAGGGGTTGTTTGT-3′ (DNA TGCTGCTCCTGGAGGGGTTGTTTGT; DNA, backbone and methylation of C not given here; further chemistry not fully specified) [SEQ ID NO:57]
Normalized IL-6 Response (Percentage of Positive Control) [2]: 22% | Normalized IL-6 Response (Percentage of Positive Control) [3]: 17%

5′-TGCTGCTCCTGGAGGGGTTGT-3′ (DNA TGCTGCTCCTGGAGGGGTTGT; DNA, backbone and methylation of C not given here; further chemistry not fully specified) [SEQ ID NO:60]
Normalized IL-6 Response (Percentage of Positive Control) [1]: 10% | Normalized IL-6 Response (Percentage of Positive Control) [4]: 10%

5′-TGC TGC TCC TGG AGI GGT TGT AAG T-3′ (DNA TGCTGCTCCTGGAGNGGTTGTAAGT; DNA, [I] at 15, backbone and methylation of C not given here) [SEQ ID NO:78]
Normalized IL-6 Response (Percentage of Positive Control) [7]: 26% | Normalized IL-6 Response (Percentage of Positive Control) [8]: 29%

5′-TGC TGC TCC TGG AGI GGT TGT-3′ (DNA TGCTGCTCCTGGAGNGGTTGT; DNA, [I] at 15, backbone and methylation of C not given here) [SEQ ID NO:66]
Normalized IL-6 Response (Percentage of Positive Control) [7]: 20% | Normalized IL-6 Response (Percentage of Positive Control) [6]: 18%

5′-TGCTGCTCCTTGAGGGGTTGTTTGT-3′ (DNA TGCTGCTCCTTGAGGGGTTGTTTGT; DNA, backbone and methylation of C not given here; further chemistry not fully specified) [SEQ ID NO:58]
Normalized IL-6 Response (Percentage of Positive Control) [2]: 33% | Normalized IL-6 Response (Percentage of Positive Control) [3]: 29%

5′-TGCTGCTCCTTGAGGGGTTGT-3′ (DNA TGCTGCTCCTTGAGGGGTTGT; DNA, backbone and methylation of C not given here; further chemistry not fully specified) [SEQ ID NO:59]
Normalized IL-6 Response (Percentage of Positive Control) [1]: 12% | Normalized IL-6 Response (Percentage of Positive Control) [4]: 12%

5′-TGC TGC TCC TTG AGI GGT GTT GT (DNA TGCTGCTCCTTGAGNGGTGTTGT; DNA, [I] at 15, backbone not given here) [SEQ ID NO:179]
Normalized IL-6 Response (Percentage of Positive Control) [8]: 40%

5′-TGC TGC TCC TTG AGI GGT TGT AAG T (DNA TGCTGCTCCTTGAGNGGTTGTAAGT; DNA, [I] at 15, backbone not given here) [SEQ ID NO:181]
Normalized IL-6 Response (Percentage of Positive Control) [8]: 38%

5′-TGC TGC TCC TTG AGI GGT TGT TTG T-3′ (DNA TGCTGCTCCTTGAGNGGTTGTTTGT; DNA, [I] at 15, backbone and methylation of C not given here) [SEQ ID NO:62]
Normalized IL-6 Response (Percentage of Positive Control) [1]: 49% | Normalized IL-6 Response (Percentage of Positive Control) [4]: 49%

5′-TGCTTGTCCTGGAGGGGTTGT (DNA TGCTTGTCCTGGAGGGTTGT; listed as DNA, chemistry not fully specified) [SEQ ID NO:204]
Normalized IL-6 Response (Percentage of Positive Control) [1]: 9%

5′-TGC TTG TCC TGG AGI GGT GTT GT-3′ (DNA TGCTTGTCCTGGAGNGGTGTTGT; DNA, [I] at 15, backbone not given here) [SEQ ID NO:65]
Normalized IL-6 Response (Percentage of Positive Control) [7]: 38% | Normalized IL-6 Response (Percentage of Positive Control) [6]: 21%

5′-TGC TTG TCC TGG AGI GGT TGT AAG T-3′ (DNA TGCTTGTCCTGGAGNGGTTGTAAGT; DNA, [I] at 15, backbone and methylation of C not given here) [SEQ ID NO:64]
Normalized IL-6 Response (Percentage of Positive Control) [7]: 33% | Normalized IL-6 Response (Percentage of Positive Control) [5]: 19%

5′-TGC TTG TCC TGG AGI GGT TGT-3′ (DNA TGCTTGTCCTGGAGNGGTTGT; DNA, [I] at 15, backbone and methylation of C not given here) [SEQ ID NO:74]
Normalized IL-6 Response (Percentage of Positive Control) [7]: 21% | Normalized IL-6 Response (Percentage of Positive Control) (Experiment # 2, Max Conc 4.0 uM): 25% | Normalized IL-6 Response (Percentage of Positive Control) [6]: 23%

5′-TGCTTGTCCTGGAGGGGTTGT-3′ (DNA, backbone not given here; further chemistry not fully specified) [SEQ ID NO:43]
Normalized IL-6 Response (Percentage of Positive Control) [4]: 9%

5′-UGC CAA TCC TGG AGI GGT GTT GT (DNA UGCCAATCCTGGAGNGGTGTTGT; sugars from the 5' end m3 d20, [I] at 15, backbone not given here) [SEQ ID NO:135]
Normalized IL-6 Response (Percentage of Positive Control) [5]: 42%

5′-UGC HEG TCC TGG AGI GGT GTT GT (DNA NNNNTCCTGGAGNGGTGTTGT; HEG spacer, inosine, chemistry not fully specified) [SEQ ID NO:77]
Normalized IL-6 Response (Percentage of Positive Control) (Experiment # 3, Max Conc 4.0 uM): 24%
